Assay results reported in patent US9000154B2, “Rho kinase inhibitors” (Boehringer Ingelheim International GmbH, priority 2010, dated 2015).

Experiments:
ROCKII (1-543) [1] = target: T1, ROCKII (1-543) (Homo sapiens, UniProt O75116); experiment: IMAP Assay (fluorescence polarization, FAM S6 peptide); format: biochemical; design: 3 nM ROCKII (1-543) diluted in kinase reaction buffer; conditions: IMAP FP, 1 nM ROCKII (1-543), 100 μM ATP; read-out: Assay 2 IC50
Procedure: This assay is performed using FAM S6 substrate peptide (Catalogue #R7184) and IMAP FP Screening Express Kit detection reagents from Molecular Devices (Sunnyvale, Calif.) in IMAP kinase reaction buffer (Tris-HCl, pH 7.2, 10 mM MgCl2, 0.05% NaN3, 0.1% phosphate-free BSA) containing 1 mM DTT. Test compounds dissolved in neat DMSO at 0.3 mg/mL are serially diluted 1 to 3 for concentration response in 100% DMSO. The DMSO serial dilutions are further diluted 33.33-fold in kinase reaction buffer, and 10 μL of this buffer dilution is transferred to Corning black 96-well half area NBS plates for a final top concentration of 3 μg/mL in 1% DMSO. 10 μL aliquot of 3 nM ROCKII (1-543) diluted in kinase reaction buffer is added to each assay well for a final concentration of 1 nM kinase. 10 μL of a mixture of 600 nM FAM S6 peptide and 300 μM ATP diluted in kinase reaction buffer is added to each well for a final concentration of 200 nM peptide and 100 μM ATP. The kinase reaction mixture is incubated for 60 minutes at room temperature. Positive controls are reaction mixtures containing no test compound and negative controls (blanks) are reaction mixtures containing no kinase. The kinase reaction is stopped by addition of 60 μL IMAP progressive binding reagent (Catalog #R7284) diluted 400-fold in 1× Binding buffer A. After 30 min of incubation at room temperature, the plates are read for fluorescence polarization on Analyst Plate Reader using Ex 485 nm, Em 530 nm, and FL 505 dichroic mirror. The mP signals are converted to percent of control (POC) values using the formula: POC=100*(Signal−BCTRL)÷(PCTRL−BCTRL)
Where Signal is the test well signal, BCTRL is the average of background (negative control) well signals on the plate and PCTRL is the average of positive control well signals on the plate. For the concentration-responsive compounds, POC as a function of test compound concentration is fitted to a 4-parameter logistic equation of the form: Y=A+(B−A)/[1+(x/C)D]
Where A, B, C, and D are fitted parameters (parameter B is fixed at zero POC), and x and y are the independent and dependent variables, respectively. The IC50 is determined as the inflection point parameter, C.
Target sequence in this assay (O75116 1-543, species assumed): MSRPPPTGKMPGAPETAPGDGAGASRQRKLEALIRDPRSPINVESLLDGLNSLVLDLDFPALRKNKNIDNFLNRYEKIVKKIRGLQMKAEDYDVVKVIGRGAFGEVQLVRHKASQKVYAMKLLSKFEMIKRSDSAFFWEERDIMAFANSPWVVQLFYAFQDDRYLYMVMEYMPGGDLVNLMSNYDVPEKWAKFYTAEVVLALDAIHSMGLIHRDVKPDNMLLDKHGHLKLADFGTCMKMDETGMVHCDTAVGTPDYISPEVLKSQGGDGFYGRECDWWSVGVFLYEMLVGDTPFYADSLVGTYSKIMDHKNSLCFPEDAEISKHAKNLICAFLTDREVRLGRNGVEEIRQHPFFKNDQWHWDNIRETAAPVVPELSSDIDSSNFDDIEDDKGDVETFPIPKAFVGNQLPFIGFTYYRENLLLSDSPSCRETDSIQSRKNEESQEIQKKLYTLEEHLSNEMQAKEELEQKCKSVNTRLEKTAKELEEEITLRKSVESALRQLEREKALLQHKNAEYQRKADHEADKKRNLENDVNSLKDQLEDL

ROCKII (1-543) [2] = target: T1, ROCKII (1-543); experiment: Luciferin-Luciferase Assay (PKLight ATP detection); format: biochemical; design: ROCKII (1-543) (62,408 Da) was diluted in assay buffer; conditions: 7.5 nM ROCKII (1-543), 750 nM ATP
Procedure: 1. Luciferin-Luciferase Assay
The activity of ROCKII (1-543) kinase was measured utilizing Cambrex PKLight ATP Detection Reagent, a homogeneous assay technology using luciferin-luciferase to quantify residual ATP. The assay was performed in 384-well low-volume, white, non-binding surface microtiter plates (Corning). The assay buffer was 25 mM HEPES, pH 7.5, 10 mM MgCl2, 50 mM KCl, 0.2% BSA, 0.01% CHAPS, 100 μM Na3VO4 and 0.5 mM DTT. Test compounds, dissolved in neat DMSO at 500 μg/mL, were serially diluted for dose response for a final starting concentration of 3 μg/mL in 1% DMSO of assay buffer. ROCKII (1-543) (62,408 Da) was diluted in assay buffer to a final concentration of 7.5 nM in a total volume of 15 μL. Positive controls were reaction mixtures containing no test compound; negative controls (blanks) were reaction mixtures containing no kinase. After 15 minutes of pre-incubation of the test compounds with the kinase, a mixture of ATP and peptide substrate (AKRRRLSSLRA) in assay buffer was added to each well for a final concentration of 750 nM ATP and 500 nM peptide, respectively. After 90 minutes of incubation of the kinase reaction at 28° C. temperature, 10 μL of PKLight ATP Detection Reagent (warmed to room temperature previously) was added to each well. The assay plate was incubated at room temperature for additional 15 minutes and then read on an Analyst in luminescence mode. Dose-response experiments for each of the test compounds were conducted in quadruplet. IC50 values of test compounds represent 50% response of the positive control from the dose-response curve.
Target sequence in this assay (O75116 1-543): as the sequence (O75116 1-543, species assumed) above

IC50 (ROCKII (1-543) [1])	IC50 (ROCKII (1-543) [2])	Structure (SMILES)
0.49 nM	–	CN(C)[C@H]1CCc2nc(NC(=O)c3cccc(Cn4cc(-c5ccc(C#N)cc5)nn4)c3)sc2C1 [Compound 4, 3-[4-(4-Cyano-phenyl)-[1,2,3]triazol-1-ylmethyl]-N—((S)-6-dimethylamino-4,5,6,7-tetrahydro-benzothiazol-2-yl)-benzamide]
0.2 nM	–	CN(C)[C@H]1CCc2nc(NC(=O)c3cccc(Cn4cc(-c5ccc(C#N)cc5)cn4)c3)sc2C1 [Compound 5, 3-[4-(4-Cyano-phenyl)-pyrazol-1-ylmethyl]-N—((S)-6-dimethylamino-4,5,6,7-tetrahydro-benzothiazol-2-yl)-benzamide]
0.4 nM	–	N#Cc1ccc(-c2cnn(Cc3cccc(C(=O)Nc4nc5c(s4)C[C@@H](N4CCOCC4)CC5)c3)c2)cc1 [Compound 7, 3-[4-(4-Cyano-phenyl)-pyrazol-1-ylmethyl]-N—((S)-6-morpholin-4-yl-4,5,6,7-tetrahydro-benzothiazol-2-yl)-benzamide]
1 nM	–	N#Cc1ccc(-c2cn(Cc3cccc(C(=O)Nc4nc5c(s4)C[C@@H](N4CCOCC4)CC5)c3)nn2)cc1 [Compound 8, 3-[4-(4-Cyano-phenyl)-[1,2,3]triazol-1-ylmethyl]-N—((S)-6-morpholin-4-yl-4,5,6,7-tetrahydro-benzothiazol-2-yl)-benzamide]
0.58 nM	–	CN1CCN(C2CCc3nc(NC(=O)c4cccc(Cn5cc(-c6ccc(C#N)cc6)cn5)c4)sc3C2)CC1 (stereo not drawn) [Compound 11, 3-[4-(4-Cyano-phenyl)-pyrazol-1-ylmethyl]-N-[6-(4-methyl-piperazin-1-yl)-4,5,6,7-tetrahydro-benzothiazol-2-yl]-benzamide]
1 nM	–	N#CCCN[C@H]1CCc2nc(NC(=O)c3cccc(Cn4cc(-c5ccc(C#N)cc5)nn4)c3)sc2C1 [Compound 13, N—[(S)-6-(2-Cyano-ethylamino)-4,5,6,7-tetrahydro-benzothiazol-2-yl]-3-[4-(4-cyano-phenyl)-[1,2,3]triazol-1-ylmethyl]-benzamide]
0.41 nM	–	COCCN(C)C1CCc2nc(NC(=O)c3cccc(Cn4cc(-c5ccc(C#N)cc5)cn4)c3)sc2C1 (stereo not drawn) [Compound 14, 3-[4-(4-Cyano-phenyl)-pyrazol-1-ylmethyl]-N-{6-[(2-methoxy-ethyl)-methyl-amino]-4,5,6,7-tetrahydro-benzothiazol-2-yl}-benzamide]
0.47 nM	–	N#Cc1ccc(-c2cnn(Cc3cccc(C(=O)Nc4nc5c(s4)C[C@@H](NCCC(F)(F)F)CC5)c3)c2)cc1 [Compound 20, 3-[4-(4-Cyano-phenyl)-pyrazol-1-ylmethyl]-N—[(S)-6-(3,3,3-trifluoro-propylamino)-4,5,6,7-tetrahydro-benzothiazol-2-yl]-benzamide]
1.3 nM	–	CN1CCN(C2CCc3nc(NC(=O)c4cccc(Cn5cc(-c6ccc(C#N)cc6)nn5)c4)sc3C2)CC1 (stereo not drawn) [Compound 23, 3-[4-(4-Cyano-phenyl)-[1,2,3]triazol-1-ylmethyl]-N-[6-(4-methyl-piperazin-1-yl)-4,5,6,7-tetrahydro-benzothiazol-2-yl]-benzamide]
0.65 nM	–	CN1CCN([C@H]2CCc3nc(NC(=O)c4cccc(Cn5cc(-c6ccc(C#N)cc6)cn5)c4)sc3C2)CC1 [Compound 25, 3-[4-(4-Cyano-phenyl)-pyrazol-1-ylmethyl]-N—[(S)-6-(4-methyl-piperazin-1-yl)-4,5,6,7-tetrahydro-benzothiazol-2-yl]-benzamide]
0.35 nM	–	N#Cc1ccc(-c2cnn(Cc3cccc(C(=O)Nc4nc5c(s4)C[C@@H](N)CC5)c3)c2)cc1 [Compound 28, N—((S)-6-Amino-4,5,6,7-tetrahydro-benzothiazol-2-yl)-3-[4-(4-cyano-phenyl)-pyrazol-1-ylmethyl]-benzamide]
0.73 nM	–	N#Cc1ccc(-c2cn(Cc3cccc(C(=O)Nc4nc5c(s4)C[C@@H](N)CC5)c3)nn2)cc1 [Compound 29, N—((S)-6-Amino-4,5,6,7-tetrahydro-benzothiazol-2-yl)-3-[4-(4-cyano-henyl)-[1,2,3]triazol-1-ylmethyl]-benzamide]
3.1 nM	–	CN(CCC(F)(F)F)[C@H]1CCc2nc(NC(=O)c3cccc(Cn4cc(-c5ccc(C#N)cc5)nn4)c3)sc2C1 [Compound 31, 3-[4-(4-Cyano-phenyl)-[1,2,3]triazol-1-ylmethyl]-N-{(S)-6-[methyl-(3,3,3-trifluoro-propyl)-amino]-4,5,6,7-tetrahydro-benzothiazol-2-yl}-benzamide]
0.35 nM	–	N#CCCN[C@H]1CCc2nc(NC(=O)c3cccc(Cn4cc(-c5ccc(C#N)cc5)cn4)c3)sc2C1 [Compound 33, N—[(S)-6-(2-Cyano-ethylamino)-4,5,6,7-tetrahydro-benzothiazol-2-yl]-3-[4-(4-cyano-phenyl)-pyrazol-1-ylmethyl]-benzamide]
–	9.9 nM	N#Cc1cccc(-c2ccnc(Cc3cccc(C(=O)Nc4nc5c(s4)C[C@@H](N4CCOCC4)CC5)c3)n2)c1 [Compound 36, 3-[4-(3-Cyano-phenyl)-pyrimidin-2-ylmethyl]-N—((S)-6-morpholin-4-yl-4,5,6,7-tetrahydro-benzothiazol-2-yl)-benzamide]
0.34 nM	–	COCCN(C)[C@H]1CCc2nc(NC(=O)c3cccc(Cn4cc(-c5ccc(C#N)cc5)cn4)c3)sc2C1 [Compound 46, 3-[4-(4-Cyano-phenyl)-pyrazol-1-ylmethyl]-N-{(S)-6-[(2-methoxy-ethyl)-methyl-amino]-4,5,6,7-tetrahydro-benzothiazol-2-yl}-benzamide]
0.32 nM	–	COCCN[C@H]1CCc2nc(NC(=O)c3cccc(Cn4cc(-c5ccc(C#N)cc5)nn4)c3)sc2C1 [Compound 48, 3-[4-(4-Cyano-phenyl)-[1,2,3]triazol-1-ylmethyl]-N—[(S)-6-(2-methoxy-ethylamino)-4,5,6,7-tetrahydro-benzothiazol-2-yl]-benzamide]
–	1.8 nM	N#Cc1ccc(-c2cnn(Cc3cccc(C(=O)Nc4nc5c(s4)CC(NCC(F)F)CC5)c3)c2)cc1 (stereo not drawn) [Compound 51, 3-[4-(4-Cyano-phenyl)-pyrazol-1-ylmethyl]-N-[6-(2,2-difluoro-ethylamino)-4,5,6,7-tetrahydro-benzothiazol-2-yl]-benzamide]
–	9.4 nM	N#Cc1ccc(-c2cn(Cc3cccc(C(=O)Nc4nc5c(s4)CC(NCC(F)F)CC5)c3)nn2)cc1 (stereo not drawn) [Compound 52, 3-[4-(4-Cyano-phenyl)-[1,2,3]triazol-1-ylmethyl]-N-[6-(2,2-difluoro-ethylamino)-4,5,6,7-tetrahydro-benzothiazol-2-yl]-benzamide]
–	1.9 nM	CN(CCC#N)[C@H]1CCc2nc(NC(=O)c3cccc(Cn4cc(-c5ccc(C#N)cc5)cn4)c3)sc2C1 [Compound 53, N-{(S)-6-[(2-Cyano-ethyl)-methyl-amino]-4,5,6,7-tetrahydro-benzothiazol-2-yl}-3-[4-(4-cyano-phenyl)-pyrazol-1-ylmethyl]-benzamide]
–	1.9 nM	COCCN[C@@H]1CCc2nc(NC(=O)c3cccc(Cn4cc(-c5ccc(C#N)cc5)cn4)c3)sc2C1 [Compound 57, 3-[4-(4-Cyano-phenyl)-pyrazol-1-ylmethyl]-N—[(R)-6-(2-methoxy-ethylamino)-4,5,6,7-tetrahydro-benzothiazol-2-yl]-benzamide]
